According to publication PMC4658577 (Frontiers in Plant Science, 2015):

Legend:
Type in all cases: cell-based
[1] = target: T1, ANO1/CaCC (TMEM16A) (Homo sapiens, UniProt Q5XXA6); test: Eact-induced short-circuit current in ANO1-expressing FRT cells, […]
T1 construct: ANO1 cDNA
T1 sequence (Q5XXA6 1-986): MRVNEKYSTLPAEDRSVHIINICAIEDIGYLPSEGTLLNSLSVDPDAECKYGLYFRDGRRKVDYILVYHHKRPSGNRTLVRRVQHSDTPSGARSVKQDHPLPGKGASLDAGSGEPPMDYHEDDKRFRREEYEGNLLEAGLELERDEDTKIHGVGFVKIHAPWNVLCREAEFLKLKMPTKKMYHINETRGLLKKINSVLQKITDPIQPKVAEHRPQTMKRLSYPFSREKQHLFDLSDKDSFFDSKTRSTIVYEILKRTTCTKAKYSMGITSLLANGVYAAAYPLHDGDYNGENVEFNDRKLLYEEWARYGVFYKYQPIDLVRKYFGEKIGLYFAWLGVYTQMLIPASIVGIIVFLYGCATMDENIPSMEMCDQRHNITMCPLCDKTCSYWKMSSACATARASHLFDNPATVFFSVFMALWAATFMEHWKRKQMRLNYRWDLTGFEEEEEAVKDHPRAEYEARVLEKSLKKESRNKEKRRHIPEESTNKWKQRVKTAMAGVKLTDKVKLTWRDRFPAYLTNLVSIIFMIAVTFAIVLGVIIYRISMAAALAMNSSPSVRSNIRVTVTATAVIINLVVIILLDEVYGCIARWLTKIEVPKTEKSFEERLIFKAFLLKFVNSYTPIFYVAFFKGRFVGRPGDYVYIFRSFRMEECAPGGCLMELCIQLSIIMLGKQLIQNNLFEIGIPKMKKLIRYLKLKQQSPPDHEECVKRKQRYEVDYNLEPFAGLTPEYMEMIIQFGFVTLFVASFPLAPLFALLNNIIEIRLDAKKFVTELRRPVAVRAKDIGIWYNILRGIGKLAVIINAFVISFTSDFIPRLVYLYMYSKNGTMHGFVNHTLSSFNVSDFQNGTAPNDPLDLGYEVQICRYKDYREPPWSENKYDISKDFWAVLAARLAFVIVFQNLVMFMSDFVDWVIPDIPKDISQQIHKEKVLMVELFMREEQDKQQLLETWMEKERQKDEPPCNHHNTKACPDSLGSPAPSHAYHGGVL

[2] = target: T2, cystic fibrosis transmembrane conductance regulator (CFTR) (Homo sapiens, UniProt P13569); test: gradient concentrations inhibiting lignan-activated CFTR iodide influx in FRT cells
T2 construct: human wild-type CFTR cDNA
T2 sequence (P13569 whole entry): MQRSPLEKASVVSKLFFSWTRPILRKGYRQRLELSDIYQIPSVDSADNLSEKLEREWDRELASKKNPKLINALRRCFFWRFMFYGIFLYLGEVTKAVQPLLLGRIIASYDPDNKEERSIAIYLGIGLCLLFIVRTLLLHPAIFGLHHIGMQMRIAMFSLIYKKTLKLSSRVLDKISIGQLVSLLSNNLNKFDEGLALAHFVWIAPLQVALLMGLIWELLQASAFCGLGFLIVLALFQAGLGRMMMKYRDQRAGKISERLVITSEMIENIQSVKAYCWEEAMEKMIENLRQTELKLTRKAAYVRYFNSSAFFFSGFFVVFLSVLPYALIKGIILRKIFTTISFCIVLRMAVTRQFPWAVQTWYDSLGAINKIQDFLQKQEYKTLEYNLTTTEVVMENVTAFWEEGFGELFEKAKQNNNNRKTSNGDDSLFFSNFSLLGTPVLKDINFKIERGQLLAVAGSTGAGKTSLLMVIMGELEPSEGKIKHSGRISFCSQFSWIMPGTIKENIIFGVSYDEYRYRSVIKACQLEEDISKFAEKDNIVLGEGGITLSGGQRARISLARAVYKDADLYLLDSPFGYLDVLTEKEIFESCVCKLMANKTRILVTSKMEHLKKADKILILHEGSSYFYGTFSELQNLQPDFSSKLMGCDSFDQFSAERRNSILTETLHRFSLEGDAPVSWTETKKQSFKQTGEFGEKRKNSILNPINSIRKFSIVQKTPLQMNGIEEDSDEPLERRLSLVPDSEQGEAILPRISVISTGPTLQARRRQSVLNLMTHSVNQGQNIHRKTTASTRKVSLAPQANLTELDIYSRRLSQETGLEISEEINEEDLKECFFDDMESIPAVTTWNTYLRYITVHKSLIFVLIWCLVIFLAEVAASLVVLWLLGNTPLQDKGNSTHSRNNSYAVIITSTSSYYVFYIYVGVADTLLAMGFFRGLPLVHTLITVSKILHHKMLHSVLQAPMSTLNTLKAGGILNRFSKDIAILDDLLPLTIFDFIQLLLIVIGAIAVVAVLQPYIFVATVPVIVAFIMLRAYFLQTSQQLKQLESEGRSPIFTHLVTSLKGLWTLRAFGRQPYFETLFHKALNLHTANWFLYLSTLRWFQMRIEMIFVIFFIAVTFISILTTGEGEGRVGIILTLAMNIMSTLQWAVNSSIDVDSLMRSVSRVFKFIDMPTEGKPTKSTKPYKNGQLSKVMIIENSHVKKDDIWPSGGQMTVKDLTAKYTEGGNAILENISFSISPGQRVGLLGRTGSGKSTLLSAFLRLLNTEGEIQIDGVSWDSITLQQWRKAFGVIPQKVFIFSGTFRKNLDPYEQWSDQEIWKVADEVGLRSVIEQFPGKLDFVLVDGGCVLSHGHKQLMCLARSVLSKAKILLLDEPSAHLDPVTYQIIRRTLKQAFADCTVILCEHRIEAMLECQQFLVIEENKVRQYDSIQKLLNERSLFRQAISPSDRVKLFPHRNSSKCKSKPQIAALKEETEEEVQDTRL

[3] = target: T1, ANO1/CaCC (TMEM16A); test: Eact-induced short-circuit current in ANO1-expressing FRT cells

## CCc1c(C)nc(SCC(=O)Nc2nc(-c3ccc(OC)cc3)cs2)[nH]c1=O [16A, T16Ainh-A01]
[1]
  Eact-induced short-circuit current in ANO1-expressing FRT cells, 30 μM: Eact-induced ANO1-mediated short-circuit current was completely abolished by the specific inhibitor of ANO1 T16Ainh-A01

## O=C(O)c1ccc(/C=C2\SC(=S)N(c3cccc(C(F)(F)F)c3)C2=O)cc1 [compound 172, CFTRinh-172]
[2]
  gradient concentrations inhibiting lignan-activated CFTR iodide influx in FRT ce: activation effect of these compounds could be inhibited by gradient concentrations of the known CFTR inhibitor CFTRinh-172

## COc1ccc([C@H]2OC[C@H]3[C@@H]2CO[C@@H]3c2ccc(OC)c(OC)c2)cc1OC [eudesmin]
[3]
  IC50: 200 µM
